In PubChem BioAssay AID330 (DTP/NCI, 2004):
Values joined by “and” are separate entries in the source; they are usually repeats but may differ in a detail not shown here. Equal values may be shown once. Inconclusive results and toxic doses are left out. How the source made its calls: active means survival T/C of 150% or more; inactive means T/C below 125% in these data.

Test system: P388 leukemia ip, CD2F1 mice, survival T/C
Assay: NCI In Vivo Anticancer Drug Screen. Data for tumor model P388 Leukemia (intraperitoneal) in CD2F1 (CDF1) mice
Settings: endpoint: median survival time, higher = longer survival
In short: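 Mice carrying the transplanted tumor received test compound or vehicle. Survival was recorded in each group, and the value is the treated-group measurement divided by that of the vehicle-treated control group.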

[1] = dose: 15.0 mg/kg/injection, schedule: Q01DX005 (ip), vehicle: saline with Tween-80
[2] = dose: 30.0 mg/kg/injection, schedule: Q01DX005 (ip), vehicle: saline with Tween-80
[3] = dose: 50.0 mg/kg/injection, schedule: Q01DX005 (ip), vehicle: Klucel (hydroxypropylcellulose) (HPC)
[4] = dose: 100.0 mg/kg/injection, schedule: Q01DX005 (ip), vehicle: Klucel (hydroxypropylcellulose) (HPC)
[5] = dose: 60.0 mg/kg/injection, schedule: Q01DX005 (ip), vehicle: saline
[6] = dose: 120.0 mg/kg/injection, schedule: Q01DX005 (ip), vehicle: saline
[7] = dose: 240.0 mg/kg/injection, schedule: Q01DX005 (ip), vehicle: saline
[8] = dose: 50.0 mg/kg/injection, schedule: Q01DX005 (ip), vehicle: saline
[9] = dose: 100.0 mg/kg/injection, schedule: Q01DX005 (ip), vehicle: saline
[10] = dose: 60.0 mg/kg/injection, schedule: Q01DX005 (ip), vehicle: saline with Tween-80
[11] = dose: 120.0 mg/kg/injection, schedule: Q01DX005 (ip), vehicle: saline with Tween-80
[12] = dose: 240.0 mg/kg/injection, schedule: Q01DX005 (ip), vehicle: saline with Tween-80
[13] = dose: 200.0 mg/kg/injection, schedule: Q01DX005 (ip), vehicle: Klucel (hydroxypropylcellulose) (HPC)
[14] = dose: 50.0 mg/kg/injection, schedule: Q01DX005 (ip), vehicle: saline with Tween-80
[15] = dose: 100.0 mg/kg/injection, schedule: Q01DX005 (ip), vehicle: saline with Tween-80
[16] = dose: 200.0 mg/kg/injection, schedule: Q01DX005 (ip), vehicle: saline with Tween-80

Measured: T/C

CCCCCCCC/C=C/CC1CCCC(C)N1 (configuration not stated) (tested in a mixture with another compound)
inactive: dose: 7.5 mg/kg/injection, schedule: Q01DX005 (ip), vehicle: saline with Tween-80 100 % of control | [1] 100 % of control | [2] 98 % of control and 102 % of control

COC(=O)C1C2CC3c4[nH]c5cc(OC)ccc5c4CCN3CC2CC(O)C1OC (configuration not stated)
inactive: [3] 97 % of control | [4] 97 % of control

COC(=O)C1(C(=O)OC)ON1C(C)C (configuration not stated)
inactive: [5] 98 % of control | [6] 94 % of control | [7] 116 % of control

COC(=O)C1(CC(=O)c2cccs2)NC(=S)NC(=O)C1C#N (configuration not stated)
inactive: [5] 98 % of control | [6] 100 % of control | [7] 94 % of control

CCN(CC)CCCC(C)Nc1c(C)cnc2cc(Cl)ccc12 (configuration not stated)
inactive: [8] 98 % of control | [9] 108 % of control

COc1ccc(/C=C/C(CCN(C)C)=N/NC(=S)Nc2ccc(Br)cc2)cc1
inactive: dose: 100.0 mg/kg/injection, schedule: Q01DX001 (ip), vehicle: saline with Tween-80 101 % of control | dose: 200.0 mg/kg/injection, schedule: Q01DX001 (ip), vehicle: saline with Tween-80 96 % of control | dose: 400.0 mg/kg/injection, schedule: Q01DX001 (ip), vehicle: saline with Tween-80 105 % of control

CN(C)C1=NN(Cc2ccccc2)C(=O)C1
inactive: dose: 50.0 mg/kg/injection, schedule: Q01DX009 (ip), vehicle: saline 105 % of control | dose: 100.0 mg/kg/injection, schedule: Q01DX009 (ip), vehicle: saline 103 % of control | dose: 200.0 mg/kg/injection, schedule: Q01DX009 (ip), vehicle: saline 96 % of control

COC(SC)(C(=O)O)c1cc(-c2c(Cl)cccc2Cl)no1 (configuration not stated)
inactive: [10] 96 % of control | [11] 93 % of control | [12] 112 % of control

COc1ccc2nc(NN=O)sc2c1
inactive: dose: 1.56 mg/kg/injection, schedule: Q01DX009 (ip), vehicle: water 92 % of control | dose: 3.12 mg/kg/injection, schedule: Q01DX009 (ip), vehicle: water 101 % of control and 103 % of control | dose: 6.25 mg/kg/injection, schedule: Q01DX009 (ip), vehicle: water 100 % of control and 92 % of control | dose: 12.5 mg/kg/injection, schedule: Q01DX009 (ip), vehicle: water 100 % of control and 101 % of control | dose: 25.0 mg/kg/injection, schedule: Q01DX009 (ip), vehicle: water 104 % of control and 97 % of control | dose: 50.0 mg/kg/injection, schedule: Q01DX009 (ip), vehicle: water 111 % of control

CC(=O)OCc1c(-c2ccccc2)c(=O)c1=O
inactive: [1] 100 % of control | [2] 103 % of control | dose: 60.0 mg/kg/injection, schedule: Q01DX005 (ip), vehicle: Klucel (hydroxypropylcellulose) (HPC) 108 % of control | [10] 106 % of control

O=c1c2sc3ccccc3c2ncn1/N=C/c1cccc([N+](=O)[O-])c1
inactive: [3] 99 % of control | [4] 92 % of control | [13] 91 % of control

O=C(c1ccccc1)C(Cl)C(Cl)c1ccccc1 (configuration not stated)
inactive: dose: 25.0 mg/kg/injection, schedule: Q01DX005 (ip), vehicle: saline with Tween-80 102 % of control | [14] 105 % of control | [15] 101 % of control | [16] 100 % of control

O=C(Nc1ccc(C2=NCCN2)cc1)c1cc(Cl)cc(C(=O)Nc2ccc(C3=NCCN3)cc2)c1
inactive: dose: 140.0 mg/kg/injection, schedule: Q01DX010 (ip), vehicle: saline 95 % of control | dose: 210.0 mg/kg/injection, schedule: Q01DX010 (ip), vehicle: saline 90 % of control | dose: 315.0 mg/kg/injection, schedule: Q01DX010 (ip), vehicle: saline 100 % of control | dose: 473.0 mg/kg/injection, schedule: Q01DX010 (ip), vehicle: saline 100 % of control

CC1(C)CC(=O)CC(C(Cl)(Cl)Cl)O1 (configuration not stated)
inactive: [14] 99 % of control | [15] 100 % of control | [16] 98 % of control

Cc1ccc([N+](=O)[O-])cc1O
inactive: dose: 25.0 mg/kg/injection, schedule: Q01DX009 (ip), vehicle: other 95 % of control | dose: 50.0 mg/kg/injection, schedule: Q01DX009 (ip), vehicle: other 100 % of control | dose: 100.0 mg/kg/injection, schedule: Q01DX009 (ip), vehicle: other 110 % of control

CC(C)(C)N=C(Nc1ccccc1Cl)C(Cl)CSc1ccccc1 (configuration not stated)
inactive: [3] 100 % of control and 102 % of control | [4] 100 % of control and 98 % of control | [13] 105 % of control

C=CC(=NC(C)(C)C)N(CC)CC
inactive: [1] 103 % of control | [2] 105 % of control | [10] 100 % of control and 106 % of control

CSP(C)(=O)CCC(C)=O (configuration not stated)
inactive: dose: 25.0 mg/kg/injection, schedule: Q01DX001 (ip), vehicle: saline 100 % of control | dose: 50.0 mg/kg/injection, schedule: Q01DX001 (ip), vehicle: saline 100 % of control | dose: 100.0 mg/kg/injection, schedule: Q01DX001 (ip), vehicle: saline 102 % of control

COc1ccc(C(=O)Cc2nc3nnc(NC(=O)Nc4ccc(Cl)cc4)n3[nH]c2=O)cc1
inactive: [10] 99 % of control | [11] 99 % of control | [12] 100 % of control

CC(=O)N(C)c1ccc(Nc2ccc(Nc3ccc(N(C)C(C)=O)cc3)c3c2C(=O)c2ccccc2C3=O)cc1
inactive: [14] 100 % of control | [15] 100 % of control | [16] 99 % of control

COc1ccc(NS(=O)(=O)c2ccc(NC3OC(CO)C(O)C(O)C3NC(C)=O)cc2)nn1 (configuration not stated)
inactive: [8] 104 % of control | [9] 100 % of control | dose: 200.0 mg/kg/injection, schedule: Q01DX005 (ip), vehicle: saline 104 % of control

O=S(=O)(O)O.[Ga]
inactive: dose: 33.0 mg/kg/injection, schedule: Q04DX003 (ip), vehicle: saline sonified 95 % of control | dose: 50.0 mg/kg/injection, schedule: Q01DX009 (ip), vehicle: saline sonified 100 % of control | dose: 50.0 mg/kg/injection, schedule: Q04DX003 (ip), vehicle: saline sonified 110 % of control

NC(=O)NC1CC1c1ccc(Cl)c(Cl)c1 (configuration not stated)
inactive: [3] 103 % of control | [4] 99 % of control | [13] 114 % of control

CC(=O)O[C@@H]1C[C@H]2C(C)(C)C(=O)C=C[C@]2(C)[C@H]2CC[C@]3(C)C(=CC(=O)O[C@H]3c3ccoc3)[C@@]21C
inactive: dose: 2.5 mg/kg/injection, schedule: Q01DX009 (ip), vehicle: Klucel (hydroxypropylcellulose) (HPC) 103 % of control | dose: 5.0 mg/kg/injection, schedule: Q01DX009 (ip), vehicle: Klucel (hydroxypropylcellulose) (HPC) 100 % of control | dose: 10.0 mg/kg/injection, schedule: Q01DX009 (ip), vehicle: Klucel (hydroxypropylcellulose) (HPC) 103 % of control and 97 % of control | dose: 20.0 mg/kg/injection, schedule: Q01DX009 (ip), vehicle: Klucel (hydroxypropylcellulose) (HPC) 95 % of control | dose: 40.0 mg/kg/injection, schedule: Q01DX009 (ip), vehicle: Klucel (hydroxypropylcellulose) (HPC) 103 % of control

S=C(N/N=C\c1nc2ccccc2c2ccccc12)Nc1ccc(Cl)cc1
inactive: dose: 100.0 mg/kg/injection, schedule: Q04DX002 (ip), vehicle: Klucel (hydroxypropylcellulose) (HPC) 90 % of control | dose: 200.0 mg/kg/injection, schedule: Q04DX002 (ip), vehicle: Klucel (hydroxypropylcellulose) (HPC) 96 % of control | dose: 400.0 mg/kg/injection, schedule: Q04DX002 (ip), vehicle: Klucel (hydroxypropylcellulose) (HPC) 96 % of control

O=C(Cc1nc2ccccc2[nH]1)C(F)(F)F
inactive: dose: 100.0 mg/kg/injection, schedule: Q01DX001 (ip), vehicle: Klucel (hydroxypropylcellulose) (HPC) 104 % of control | dose: 200.0 mg/kg/injection, schedule: Q01DX001 (ip), vehicle: Klucel (hydroxypropylcellulose) (HPC) 94 % of control | dose: 400.0 mg/kg/injection, schedule: Q01DX001 (ip), vehicle: Klucel (hydroxypropylcellulose) (HPC) 101 % of control

Cc1noc2c1NC(=O)OCC2
inactive: [3] 101 % of control | [4] 95 % of control | [13] 97 % of control
